From patent publication US20240327787A1, “CULTURE MEDIUM, COATING MATRIX AND METHOD FOR EXPANDING MIDBRAIN DOPAMINERGIC PROGENITOR CELLS” (NUWACELL BIOTECHNOLOGIES CO., LTD., priority 2022, published 2024)

B1: VTN: vitronectin, first coating matrix that supports cell adhesion (protein, UniProt P04004 20-478, looked up)
Vitronectin: DQESCKGRCTEGFNVDKKCQCDELCSYYQSCCTDYTAECKPQVTRGDVFTMPEDEYTVYDDGEEKNNATVHEQVGGPSLTSDLQAQSKGNPEQTPVLKPEEEAPAPEVGASKPEGIDSRPETLHPGRPQPPAEEELCSGKPFDAFTDLKNGSLFAFRGQYCYELDEKAVRPGYPKLIRDVWGIEGPIDAAFTRINCQGKTYLFKGSQYWRFEDGVLDPDYPRNISDGFDGIPDNVDAALALPAHSYSGRERVYFFKGKQYWEYQFQHQPSQEECEGSSLSAVFEHFAMMQRDSWEDIFELLFWGRTSAGTRQPQFISRDWHGVPGQVDAAMAGRIYISGMAPRPSLAKKQRFRHRNRKGYRSQRGHSRGRNQNSRRPSRATWLSLFSSEESNLGANNYDDYRMDWLVPATCEPIQSVFFFSGDKYYRVNLRTRRVDTVDPPYPRSIAQYWLGCPAPGHL

Assays:
Format in all cases: cell-based, human
imDAPs [1] = assay: imDAP expansion, cell morphology (bright-field); conditions: for attachment and morphology of imDAPs on coated surface (FIG. 4A): coating 1 μg/cm^2 each, day 4, Example 8 expansion medium
Experimental: imDAPs were produced according to the method described in CN201910169525.0. The imDAPs (P0) were seeded on VTN-coated plates (1 μg/cm^2) at a density of 1×10^5 cells/cm^2 in the expansion medium (50% DMEM/F12, 50% Neurobasal™ medium, 1% (v/v) Glutamax, 2% (v/v) B27 (50×), 0.2 μM LDN193189, 3 μM CHIR99021, 100 ng/mL FGF8b) in the absence or presence of 5 μM Blebbistatin. In case where Blebbistatin is present, Blebbistatin was either removed 24 hrs after plating or present throughout the culture period. The medium was changed every day for 5 days.
imDAPs were produced according to the method described in CN201910169525.0. The imDAPs (P0) were seeded on VTN-coated plates (1 μg/cm^2) at a density of 1×10^5 cells/cm^2 in the expansion medium (50% DMEM/F12, 50% Neurobasal™ medium, 1% (v/v) Glutamax, 2% (v/v) B27 (50×), 3 μM CHIR99021, 100 ng/mL FGF8b, 5 μM Blebbistatin) in the absence or presence of 0.2 μM LDN193189. The medium was changed every day for 5 days.
(§1) imDAPs were produced according to the method described in CN201910169525.0. The imDAPs (P0) were seeded on DLL4-coated (1 μg/cm^2), VTN-coated (1 μg/cm^2) and DLL4/VTN-coated (1 μg/cm^2 for each) plates at a low density of 1×10^4 cells/cm^2 respectively, and cultured in the expansion medium in the absence or presence of 5 μM SB431542. Medium was replaced every 3rd day until reaching 100% confluence (6 days) for cell collection. The typical cell morphology on day 4 was recorded (FIG. 4A). The cell number of each group was counted by Vi-cell cytometer (FIG. 4B). The cells of each group were stained with Foxa2-PE antibody (BD, #561589), the percentage of Foxa2+ imDAPs were analyzed by flow cytometry (FIG. 4C). The expansion medium used in this example contained the following components: 50% DMEM/F12, 50% Neurobasal™ medium, 1% (v/v) Glutamax, 1% (v/v) B27, 50 μg/ml ascorbic acid, 0.2 μM LDN193189, 100 ng/ml FGF8b, 3 μM CHIR99021 and 10 µM Y27632.
(§2) imDAPs were produced according to the method described in CN201910169525.0. The imDAPs (P0) were seeded on DLL4/VTN-coated (1 μg/cm^2 for each) plates at a low density of 1×10^4 cells/cm^2, and cultured in the expansion medium (EM1, EM2, EM3, EM4). Medium was replaced every 3rd day until reaching 100% confluence (6 days) for cell collection. EM1 used in Example 9 contained the following components: 50% DMEM/F12, 50% Neurobasal™ medium, 1% (v/v) Glutamax, 1% (v/v) B27 (50×), 50 μg/ml ascorbic acid, 3 μM CHIR99021, 5 μM SB431542 and 10 μM Y27632. EM2 used in Example 9 contained the following components: 50% DMEM/F12, 50% Neurobasal™ medium, 1% (v/v) Glutamax, 1% (v/v) B27 (50×), 50 μg/ml ascorbic acid, 0.2 μM LDN193189, 3 μM CHIR99021, 5 μM SB431542 and 10 μM Y27632. EM3 used in Example 9 contained the following components: 50% DMEM/F12, 50% Neurobasal™ medium, 1% (v/v) Glutamax, 1% (v/v) B27 (50×), 50 μg/mL ascorbic acid, 0.2 μM LDN193189, 100 ng/ml FGF8b, 3 μM CHIR99021, 5 μM SB431542 and 10 μM Y27632. EM4 used in Example 9 contained the following components: 50% DMEM/F12, 50% Neurobasal™ medium, 1% (v/v) Glutamax, 1% (v/v) B27 (50×), 50 μg/ml ascorbic acid, 0.2 μM LDN193189, 10 ng/ml FGF2, 3 μM CHIR99021, 5 μM SB431542 and 10 μM Y27632.

imDAPs [2] = assay: Flow cytometry analysis of FOXA2 expression in expanded imDAPs; conditions: for FOXA2 expression, FACS (FIG. 4C): VTN or DLL4+VTN coating, with or without 5 μM SB431542, 6 days
Experimental: 1. Individualize and collect cells by either Accutase or TrypLE treatment.
2. Wash cells with 1 ml PBS and pellet cells at 250×g for 15 sec.
3. Remove supernatant, add ˜200 μl of 4% PFA, mix and fix for 10 min at RT.
4. Pellet cells at 350×g for 5 min.
5. Wash cells by 1 ml of FACS buffer and pellet cells at 350×g for 5 min.
6. Remove supernatant, add 200 μl/tube of FACS buffer/0.1% TritonX, mix for 10 min at RT.
7. Wash cells by 1 ml of FACS buffer and pellet cells at 350×g for 5 min.
8. Remove supernatant, add 200 μl/tube of primary antibody diluted in FACS buffer, mix gently, and incubate for 30 min at RT.
9. Wash cells by 1 ml of FACS buffer and pellet cells at 350×g for 5 min.
10. Remove supernatant, and add 200 μl of secondary antibody diluted in FACS buffer, mix gently, and incubate for 30 min at RT.
11. Wash cells by 1 ml of FACS buffer and pellet cells at 300×g for 5 min.
12. Remove supernatant, add 200 μl of FACS buffer, and run samples on the flow cytometry.
imDAPs were produced according to the method described in CN201910169525.0. The imDAPs (P0) were seeded on VTN-coated plates (1 μg/cm^2) at a low density of 1×10^4 cells/cm^2, and cultured in the expansion medium (50% DMEM/F12, 50% Neurobasal™ medium, 1% (v/v) Glutamax, 2% (v/v) B27 (50×), 0.2 μM LDN193189, 3 μM CHIR99021, 100 ng/mL FGF8b) with either 5 μM Blebbistatin or 10 μM Y27632. Medium was replaced every 3rd day. At Day 6, cells were collected for FACS analysis.
as §1
as §2, with “EM4 used in Example 9 contained the following components: 50% DMEM/F12, 50% Neurobasal™ medium, 1% (v/v) Glutamax, 1% (v/v) B27 (50×), 50 μg/ml ascorbic acid, 0.2 μM LDN193189, 10 ng/ml FGF2, 3 μM CHIR99021, 5 μM SB431542 and 10 μM Y27632.” left out

imDAPs [3] = assay: imDAP expansion efficiency (cell number, expansion fold, Population Doubling Time); conditions: DLL4/VTN-coated; for imDAP expansion, overall conclusion of Example 9: added to CHIR99021/SB431542/Y27632 medium
Experimental: imDAPs were produced according to the method described in CN201910169525.0. The imDAPs (P0) were seeded on VTN-coated plates (1 μg/cm^2) at a density of 1×10^5cells/cm^2 in the expansion medium (50% DMEM/F12, 50% Neurobasal™ medium, 1% (v/v) Glutamax, 2% (v/v) B27 (50×), 0.2 μM LDN193189, 3 μM CHIR99021, 100 ng/mL FGF8b, 5 μM Blebbistatin). The medium was changed every day. When imDAPs reach 100% confluence (4-5 days), cells were passaged enzymatically with 1× TrypLE, centrifuged at 250 g for 5 minutes, counted and replaced on new VTN-coated plates (1 μg/cm^2) at a density of 1×10^5 cells/cm^2 in the expansion medium. imDAPs were continuously expanded for 6 passages. At each passage, imDAPs were harvested at an expansion fold 5˜10 (over the initial number of imDAPs plated).
as §1, with “The expansion medium used in this example contained the following components: 50% DMEM/F12, 50% Neurobasal™ medium, 1% (v/v) Glutamax, 1% (v/v) B27, 50 μg/ml ascorbic acid, 0.2 μM LDN193189, 100 ng/ml FGF8b, 3 μM CHIR99021 and 10 µM Y27632.” left out
imDAPs were produced according to the method described in CN201910169525.0. […] Medium was replaced every 3rd day until reaching 100% confluence (6 days) for cell passaging. imDAPs were passaged enzymatically with 1× TrypLE, centrifuged at 250 g for 5 minutes, counted and plated on new DLL4/VTN-coated plates at a density of 1×10^4 cells/cm^2 in the expansion medium. imDAPs were expanded and maintained in the expansion medium for 6 passages. […]

Row | Molecule | FOXA2 expression, FACS (FIG. 4C) (imDAPs [2]) | attachment and morphology of imDAPs on coated surface (FIG. 4A) (imDAPs [1]) | imDAP expansion, overall conclusion of Example 9 (imDAPs [3]) | also measured
1 | Cc1ccc2c(c1)C(=O)C1(O)CCN(c3ccccc3)C1=N2 (centres unmarked) [Blebbistatin] |  |  |  | imDAP expansion (cell morphology, FIG. 1A) (imDAPs [1]; 5 μM Blebbistatin throughout culture vs absent or removed 24 hrs after plating, VTN-coated plates, 5 days, P0 imDAPs): supported better imDAP expansion
2 | NC(=O)c1ccc(-c2nc(-c3ccc4c(c3)OCO4)c(-c3ccccn3)[nH]2)cc1 [SB431542] | could improve FOXA2 expression |  |  | 
3 | DLL4: Notch agonist Delta-Like 4, used as coating matrix | could improve FOXA2 expression | could not support the attachment of imDAPs |  | 
4 | c1ccc2c(-c3cnn4cc(-c5ccc(N6CCNCC6)cc5)cnc34)ccnc2c1 [LDN193189] |  |  | had no additional effects on imDAP expansion | cell morphology of expanded imDAPs (FIG. 1B) (imDAPs [1]; absence vs presence of 0.2 μM LDN193189, VTN-coated, 5 days): imDAPs cultured without LDN193189 showed more flattened morphology; cell number during expansion (FIG. 5B) (imDAPs [3]; adding 0.2 μM LDN193189 and/or 100 ng/ml FGF8b to CHIR99021/SB431542/Y27632 medium, 6 days): had no additional effect on increasing the cell number; expression of FOXA2 for imDAPs, flow cytometry (FIG. 5C) (imDAPs [2]; addition of 100 ng/ml FGF8b and/or 0.2 μM LDN193189, DLL4/VTN-coated, P1 cells): slightly decreased the expression of FOXA2
5 | FGF2: fibroblast growth factor |  |  | had no additional effects on imDAP expansion | cell morphology on day 5 (FIG. 5A) (imDAPs [1]; 10 ng/ml FGF2 (with 0.2 μM LDN193189) in expansion medium EM4, DLL4/VTN-coated): some obvious heterogeneous cells were observed
6 | B1 |  | flattened morphology |  | 
